US20250368686A1, “PEPTIDE DRUGS FOR S[…] D[…] BLOCKING HOMO- AND HETERO-DIMERIZATION OF OPIOID RECEPTORS” (OKINAWA INSTITUTE OF SCIENCE AND TECHNOLOGY SCHOOL …, priority 2022, published 2025)
Where a name gives a salt, the structure may show the parent alone. Read-outs that look alike come from different tables or passages of the source. Where no end group is shown, it is not given here.

What was measured:
[1] = target: T1, DOR and MOR (DM) heterodimers (Rattus norvegicus, UniProt P33535); test: DM heterodimerisation, two-colour single-molecule imaging in CHO-K1 cells (colocalisation index, heterodimer lifetime); format: cell-based; conditions: for DM colocalisation, competition by expressed SNAPf-tagged TM peptides: CHO-K1 cells expressing DOR-mGFP, MOR-Halo and the TM peptide
T1 construct: expressed in transfected cells; host or cells: CHO-K1 cells stably co-expressing DOR and MOR
T1 sequence (P33535 whole entry, one chain of several): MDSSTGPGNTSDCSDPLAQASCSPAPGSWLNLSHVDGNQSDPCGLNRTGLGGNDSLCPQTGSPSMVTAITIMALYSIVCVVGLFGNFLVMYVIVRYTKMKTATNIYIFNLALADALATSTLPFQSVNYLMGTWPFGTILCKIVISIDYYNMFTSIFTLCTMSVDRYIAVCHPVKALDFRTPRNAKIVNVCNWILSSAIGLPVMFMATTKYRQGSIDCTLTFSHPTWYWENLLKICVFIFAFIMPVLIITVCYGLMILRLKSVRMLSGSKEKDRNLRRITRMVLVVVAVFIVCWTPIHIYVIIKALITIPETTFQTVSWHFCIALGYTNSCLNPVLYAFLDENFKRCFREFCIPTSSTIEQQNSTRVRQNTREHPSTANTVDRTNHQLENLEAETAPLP

MOR [2] = target: T2, MOR (Rattus norvegicus, UniProt P33535); format: cell-based; parameters: fluorescent tag protein (not specified for this assay); expressed in transfected cells; host or cells: CHO-K1 (M cells, MD cells); for Ca2+ mobilisation CHO-K1 stably expressing Gqi5; conditions: 0.5 μM agonist; for MOR internalisation: 60-min observations
T2 sequence (P33535 whole entry): as the sequence (P33535 whole entry, one chain of several) above

DOR [3] = target: T3, DOR (Rattus norvegicus, UniProt P33533); format: cell-based; parameters: fluorescent tag protein (not specified for this assay); expressed in transfected cells; host or cells: CHO-K1 (D cells, MD cells); conditions: for DOR internalisation, effect of agonist: 0.5 μM agonist, D cells and MD cells
T3 sequence (P33533 whole entry): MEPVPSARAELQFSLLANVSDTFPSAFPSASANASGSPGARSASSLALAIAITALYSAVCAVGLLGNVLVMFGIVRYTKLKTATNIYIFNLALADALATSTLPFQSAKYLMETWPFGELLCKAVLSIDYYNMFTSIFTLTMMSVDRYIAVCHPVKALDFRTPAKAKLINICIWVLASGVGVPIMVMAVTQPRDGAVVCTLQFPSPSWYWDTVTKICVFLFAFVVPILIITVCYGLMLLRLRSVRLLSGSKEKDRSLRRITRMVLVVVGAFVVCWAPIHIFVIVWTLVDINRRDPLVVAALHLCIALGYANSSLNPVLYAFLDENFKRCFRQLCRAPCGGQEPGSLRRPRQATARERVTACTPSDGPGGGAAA

DOR [4] = target: T3, DOR; format: cell-based; parameters: expressed in transfected cells; host or cells: CHO-K1 (A11, A14); T24 (A17); CHO-K1 stably expressing Gqi5 (A20); conditions: CHO-K1 cells, addition alone
DOR [5] = target: T3, DOR; format: cell-based; parameters: expressed in transfected cells; host or cells: CHO-K1 (A11, A14); T24 (A17); CHO-K1 stably expressing Gqi5 (A20); conditions: T24 cells, addition alone
MOR [6] = format: cell-based, rat; conditions: D- and K-cells
MOR [7] = target: T2, MOR; format: cell-based; parameters: expressed in transfected cells; host or cells: CHO-K1 (A10, A13); T24 (A16); CHO-K1 stably expressing Gqi5 (A19); conditions: T24 cells, addition alone
MOR [8] = target: T2, MOR; format: cell-based; parameters: fluorescent tag protein (not specified for this assay); expressed in transfected cells; host or cells: CHO-K1 (M cells, MD cells); for Ca2+ mobilisation CHO-K1 stably expressing Gqi5
MOR [9] = target: T2, MOR; format: cell-based; parameters: expressed in transfected cells; host or cells: CHO-K1 (A10, A13); T24 (A16); CHO-K1 stably expressing Gqi5 (A19); conditions: CHO-K1 cells, addition alone
hippocampal neurons = test: LDH cytotoxicity assay in primary culture of hippocampal neurons; format: cell-based; conditions: hippocampal neurons DIV8, DIV12, DIV14; 48, 96 and 144-hour exposures, 100 μM
Procedure: (§1) Cytotoxicity was measured by subtracting LDH content in remaining viable cells from total LDH in untreated controls.
Treatments of neurons with Trition-100 (1%) and DMSO (10%) for 48 h were used as positive controls.

T24 cells = test: LDH cytotoxicity assay in T24 cells; format: cell-based, human; conditions: 48-h exposure, 50, 100 and 200 μM
Procedure: as §1

For “MOR's TM1: MOR's TM1 (aa71-94) conjugated with the SNAPf tag, expressed in cells (IMALYSIVCVVGLFGNFLVMYVIV; also: conjugated with SNAPf tag)”, the “DM colocalisation, competition by expressed SNAPf-tagged TM peptides” value [1] was “lowered the DM colocalisation”.

`C=CCN1C[C@H](C)N([C@H](c2ccc(C(=O)N(CC)CC)cc2)c2cccc(OC)c2)C[C@H]1C` [SNC-80] was tested, and the “MOR internalisation, effect of agonist” value (MOR [2]; M cells and MD cells) was “induced”, the “DOR internalisation, effect of agonist” value (DOR [3]) was “induced dramatic DOR internalisation” and the “Fraction of internalized molecules” value (DOR [4]) was 61.6 ± 1.7 %. The “Residency time of internalized molecules” value (DOR [4]) was 10.8 ± 0.9 min, the “Fraction of internalized molecules” value (DOR [5]) was 56.5 ± 1.9 % and the “Residency time of internalized molecules” value (DOR [5]) was 8.9 ± 1.0 min.

Work on `C[C@@H](NC(=O)[C@@H](N)Cc1ccc(O)cc1)C(=O)NCC(=O)N(C)[C@@H](Cc1ccccc1)C(=O)NCCO` [DAMGO, [D-Ala^2, N-Mc-Phet, Gly^5-ol]-enkephalin acetate salt] yielded an MOR internalisation (MOR [2]; M cells) of 31.8%, an MOR internalisation (MOR [2]; MD cells) of 51.1% and a DOR internalisation (DOR [3]; MD cells, 0.5 μM MOR agonist, 4.3% without DAMGO addition) of 13.3%. The “intracellular Ca2+ mobilisation” value (MOR [6]) was “not”, the “Fraction of internalized molecules” value (MOR [7]) was 26.3 ± 1.1 % and the “Residency time of internalized molecules” value (MOR [7]) was 6.5 ± 1.2 min. The “DM heterodimer lifetime, effect of agonist” value ([1]; 0.5 μM agonist, within 5 min after addition) was “prolonged”, the “DM colocalisation index, effect of agonist” value ([1]; 0.5 μM agonist, within 5 min after addition, agonist-bound MOR with DOR) was “higher” and the “intracellular Ca2+ mobilisation” value (MOR [8]; M-cells) was “induced”. The “intracellular Ca2+ mobilisation” value (MOR [8]; MD-cells, compared with M-cells) was “greatly enhanced”, the “Fraction of internalized molecules” value (MOR [9]) was 28.1 ± 1.7 % and the “Residency time of internalized molecules” value (MOR [9]) was 11.3 ± 1.9 min.

In the case of “MOR's N-term+TM1: aa53-99 sequence of MOR conjugated with the SNAPf tag, expressed in cells (NDSLCPQTGSPSMVTAITIMALYSIVCVVGLFGNFLVMYVIVRYTKM; cysteine pairing not given here; also: conjugated with SNAPf tag)”, the “DM colocalisation, competition by expressed SNAPf-tagged TM peptides” value [1] was “competes with DM dimers more effectively”.

In the case of `CN1CC[C@]23c4c5ccc(O)c4O[C@H]2[C@@H](O)C=C[C@H]3[C@H]1C5` [morphine], the “DOR internalisation, effect of agonist” value (DOR [3]) was “hardly affected”.

For SDTFPSAFPSASANASGSPGARS [Dpep(20-42)DM], the “cytotoxicity (LDH)” value (hippocampal neurons) was “little toxicity” and the “cytotoxicity (LDH)” value (T24 cells) was “no toxicity”.

With “LSHVDGNQSDPCGLNRTGLGGNDSLCPQTG [Mpep(32-61)MD]” the DM colocalisation index ([1]; soluble peptides, 10 μM final, added to cells stably co-expressing WT-DOR and MOR) was “largest reductions”.
